Experimental findings from US20180099931A1 (AbbVie S.à.r.l., priority 2016, published 2018) are described below.

The experiment has as its target T1, F508delCFTR (Homo sapiens, UniProt P13569, DEL508-508).
T1 construct: expressed in transfected cells; host or cells: CFBE41o- human lung-derived epithelial cells (CFBE4lo-F508delCFTR-HRP), doxycycline-inducible
Nature of the experiment: Cell Surface Expression-Horse Radish Peroxidase (CSE-HRP) Assay.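 On Maximum % activity (with co-corrector): co-corrector and positive control are both the same reference corrector at 2 µM.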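 On Maximum % activity (without co-corrector): percent of the 2 µM on-plate positive control corrector response above DMSO.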 The following applies: for Emax / Maximum % activity (with co-corrector): maximum at any tested concentration, normalized to on-plate positive control; for Emax: read-out: Maximum % activity (without co-corrector). In kind it is cell-based.

[1] abbreviates: test compound without co-corrector.
Setting [2] is: test compound without co-corrector, read-out: EC50 (without co-corrector).
The mark [3] stands for this setting: with co-corrector (2 μM of 3-[(2R,4R)-4-({[1-(2,2-difluoro-1,3-benzodioxol-5-yl)cyclopropyl]carbonyl}amino)-7-methoxy-3,4-dihydro-2H-chromen-2-yl]benzoic acid).
The mark [4] stands for this setting: with co-corrector (2 μM of 3-[(2R,4R)-4-({[1-(2,2-difluoro-1,3-benzodioxol-5-yl)cyclopropyl]carbonyl}amino)-7-methoxy-3,4-dihydro-2H-chromen-2-yl]benzoic acid), read-out: EC50 (with co-corrector).

Read-outs that look alike come from different tables or passages of the source. Bounds are passed on as bounds.

T1 sequence (P13569 with tags, fused parts or gaps DEL508-508): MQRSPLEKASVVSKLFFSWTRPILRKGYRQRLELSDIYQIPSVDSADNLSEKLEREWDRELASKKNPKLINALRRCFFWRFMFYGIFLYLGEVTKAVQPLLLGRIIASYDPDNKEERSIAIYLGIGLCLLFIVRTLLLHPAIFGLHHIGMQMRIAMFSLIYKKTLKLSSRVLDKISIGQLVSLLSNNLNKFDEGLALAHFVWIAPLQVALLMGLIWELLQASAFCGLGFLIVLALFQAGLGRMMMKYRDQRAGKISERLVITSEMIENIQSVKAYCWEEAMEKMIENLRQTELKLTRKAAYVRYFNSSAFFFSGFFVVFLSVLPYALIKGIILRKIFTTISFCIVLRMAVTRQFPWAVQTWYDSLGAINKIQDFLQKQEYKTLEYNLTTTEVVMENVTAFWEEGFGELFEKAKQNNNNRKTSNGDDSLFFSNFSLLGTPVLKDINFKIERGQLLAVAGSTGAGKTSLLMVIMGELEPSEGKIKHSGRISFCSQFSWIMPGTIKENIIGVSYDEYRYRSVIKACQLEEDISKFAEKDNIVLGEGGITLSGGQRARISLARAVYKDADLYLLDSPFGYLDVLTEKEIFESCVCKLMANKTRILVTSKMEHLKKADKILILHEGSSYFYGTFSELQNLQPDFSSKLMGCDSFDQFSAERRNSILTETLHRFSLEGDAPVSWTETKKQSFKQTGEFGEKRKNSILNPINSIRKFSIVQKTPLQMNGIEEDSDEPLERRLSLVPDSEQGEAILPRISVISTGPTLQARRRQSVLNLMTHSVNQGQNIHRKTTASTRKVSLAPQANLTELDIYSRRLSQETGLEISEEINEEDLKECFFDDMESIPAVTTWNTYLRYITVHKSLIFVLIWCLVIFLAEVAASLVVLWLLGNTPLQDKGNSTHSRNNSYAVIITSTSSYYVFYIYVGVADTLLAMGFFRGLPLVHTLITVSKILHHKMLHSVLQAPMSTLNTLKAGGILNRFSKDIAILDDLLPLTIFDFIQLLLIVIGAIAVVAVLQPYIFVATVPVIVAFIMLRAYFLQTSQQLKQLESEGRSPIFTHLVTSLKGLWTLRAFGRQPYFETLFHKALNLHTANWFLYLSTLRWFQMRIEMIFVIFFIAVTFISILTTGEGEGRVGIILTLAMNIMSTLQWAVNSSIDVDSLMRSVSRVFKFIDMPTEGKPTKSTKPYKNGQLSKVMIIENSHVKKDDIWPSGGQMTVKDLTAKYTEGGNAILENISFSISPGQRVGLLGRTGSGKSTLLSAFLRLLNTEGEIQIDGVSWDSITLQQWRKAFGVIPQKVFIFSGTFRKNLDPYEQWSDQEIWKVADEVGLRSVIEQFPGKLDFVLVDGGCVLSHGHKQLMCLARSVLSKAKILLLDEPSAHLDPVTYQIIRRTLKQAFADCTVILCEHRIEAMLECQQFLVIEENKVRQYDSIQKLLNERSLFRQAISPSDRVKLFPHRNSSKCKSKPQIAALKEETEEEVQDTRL

Turning to `CCC(C)(O)CC(=O)N1[C@H](C(=O)O)[C@@H](C(C)(C)C)[C@H](NCc2cc(C(C)(C)C)ccc2OC)[C@@H]1c1ccccc1` (stereo partly shown) [II-371], the Emax under setting [1] was more than 200%. For the same compound, the half-maximal effective concentration (EC50) fell in the range of 1000 to 10000 nM under setting [2] and 1000 to 10000 nM under setting [4]. Moreover, the “Maximum % activity (with co-corrector)” value under setting [3] is on record as “+++ (≥350)”.

Regarding `COc1ccc(C(C)(C)C)cc1CN[C@H]1[C@H](C(C)(C)C)[C@@H](C(=O)O)N(C(=O)CC(C)(O)C(C)C)[C@H]1c1ccccc1` (stereo partly shown) [II-372], the Emax under setting [1] is more than 200%. In addition, the EC50 is, setting by setting: under setting [2], 1000 to 10000 nM; under setting [4], 1000 to 10000 nM. The “Maximum % activity (with co-corrector)” value under setting [3] is listed as “+++ (≥350)”.

For the compound `COc1ccc(C(C)(C)C)nc1CN[C@H]1[C@H](C(C)(C)C)[C@@H](C(=O)O)N(C(=O)C2CCCCC2)[C@H]1c1ccccc1` [II-373], the Emax under setting [1] lay in the range of 100 to 200%. Moreover, the concentration for a half-maximal effect (EC50) by setting is: under setting [2], 1000 to 10000 nM; under setting [4], 1000 to 10000 nM. Moreover, the “Maximum % activity (with co-corrector)” value under setting [3] is “+++ (≥350)”.

For the compound `COc1ccc(C(C)(C)C)cc1CN[C@H]1[C@H](C(C)(C)C)[C@@H](C(=O)O)N(C(=O)C2CCC(C(F)(F)F)CC2)[C@H]1c1ccccc1` (stereo partly shown) [II-374], the Emax under setting [1] fell in the range of 100 to 200%. The EC50 is 1000 to 10000 nM under setting [2] and less than 1000 nM under setting [4]. For the same compound, the “Maximum % activity (with co-corrector)” value under setting [3] is given as “+++ (≥350)”.

For the compound `COc1ccc(C(C)(C)C)cc1CN[C@H]1[C@H](C(C)(C)C)[C@@H](C(=O)O)N(C(=O)C2CC3C(CC2C)C3(C)C)[C@H]1c1ccccc1` (stereo partly shown) [II-376], the Emax under setting [1] is more than 200%. Besides, the EC50 under setting [2] lay in the range of 1000 to 10000 nM and the 50% effective concentration (EC50) under setting [4] was in the range of 1000 to 10000 nM. Moreover, the “Maximum % activity (with co-corrector)” value under setting [3] was “+++ (≥350)”.

Regarding `COc1ccc(C(C)(C)C)cc1CN[C@H]1[C@H](C(C)(C)C)[C@@H](C(=O)O)N(C(=O)C2CCC(F)(F)CC2)[C@H]1c1ccccc1` [II-377], the Emax under setting [1] is 100 to 200%. The EC50 fell in the range of 1000 to 10000 nM under setting [2] and 1000 to 10000 nM under setting [4]. Further, under setting [3], the “Maximum % activity (with co-corrector)” value was “+++ (≥350)”.

As for `COc1ccc(C(C)(C)C)cc1CN[C@H]1[C@H](C(C)(C)C)[C@@H](C(=O)O)N(C(=O)C2CCCCC2C(F)(F)F)[C@H]1c1ccccc1` (stereo partly shown) [II-378], the Emax under setting [1] is more than 200%. Besides, the EC50 under setting [2] was less than 1000 nM and the EC50 under setting [4] is less than 1000 nM. In addition, the “Maximum % activity (with co-corrector)” value under setting [3] is “+++ (≥350)”.

Consider `CCCCOC(=O)N1[C@H](C(=O)O)[C@@H](C(C)(C)C)[C@H](NCc2cc(C(C)(C)C)ccc2OC)[C@@H]1c1ccccc1` [II-383], for which the Emax under setting [1] was more than 200%. The EC50 under setting [2] is 1000 to 10000 nM and the half-maximal effective concentration (EC50) under setting [4] is less than 1000 nM. Further, the “Maximum % activity (with co-corrector)” value under setting [3] is on record as “+++ (≥350)”.

For the compound `C#CCOC(=O)N1[C@H](C(=O)O)[C@@H](C(C)(C)C)[C@H](NCc2cc(C(C)(C)C)ccc2OC)[C@@H]1c1ccccc1` [II-384], the Emax under setting [1] was more than 200%. Also, the half-maximal effective concentration (EC50) fell in the range of 1000 to 10000 nM under setting [2] and 1000 to 10000 nM under setting [4]. The “Maximum % activity (with co-corrector)” value under setting [3] is “+++ (≥350)”.

Regarding `CCCCCOC(=O)N1[C@H](C(=O)O)[C@@H](C(C)(C)C)[C@H](NCc2cc(C(C)(C)C)ccc2OC)[C@@H]1c1ccccc1` [II-385], under setting [1], the Emax was more than 200%. Besides, the EC50 reads like this: under setting [2], less than 1000 nM; under setting [4], less than 1000 nM. Further, the “Maximum % activity (with co-corrector)” value under setting [3] was “+++ (≥350)”.

For `COc1ccc(C(C)(C)C)cc1CN[C@H]1[C@H](C(C)(C)C)[C@@H](C(=O)O)N(C(=O)O[C@H]2C[C@@H](C)CC[C@@H]2C(C)C)[C@H]1c1ccccc1` [II-386], the Emax under setting [1] is more than 200%. Moreover, the EC50 under setting [2] is less than 1000 nM and the EC50 under setting [4] was less than 1000 nM. The “Maximum % activity (with co-corrector)” value under setting [3] is “+++ (≥350)”.

On to `C=CCCOC(=O)N1[C@H](C(=O)O)[C@@H](C(C)(C)C)[C@H](NCc2cc(C(C)(C)C)ccc2OC)[C@@H]1c1ccccc1` [II-387], for which, under setting [1], the Emax is more than 200%. Also, the concentration for a half-maximal effect (EC50) under setting [2] was in the range of 1000 to 10000 nM and the 50% effective concentration (EC50) under setting [4] was in the range of 1000 to 10000 nM. Moreover, under setting [3], the “Maximum % activity (with co-corrector)” value is on record as “+++ (≥350)”.

On to `COC(=O)N1[C@H](C(=O)O)[C@@H](C(C)(C)C)[C@H](NCc2cc(C(C)(C)C)ccc2OC)[C@@H]1c1ccccc1` [II-388], for which, under setting [1], the Emax is more than 200%. In addition, the EC50 under setting [2] fell in the range of 1000 to 10000 nM and the 50% effective concentration (EC50) under setting [4] lay in the range of 1000 to 10000 nM. Also, the “Maximum % activity (with co-corrector)” value under setting [3] was “+++ (≥350)”.

Consider `CC#CCOC(=O)N1[C@H](C(=O)O)[C@@H](C(C)(C)C)[C@H](NCc2cc(C(C)(C)C)ccc2OC)[C@@H]1c1ccccc1` [II-389], for which the Emax under setting [1] lay within 100 to 200%. Besides, the EC50 by setting is: under setting [2], 1000 to 10000 nM; under setting [4], 1000 to 10000 nM. Also, under setting [3], the “Maximum % activity (with co-corrector)” value is given as “+++ (≥350)”.

In the case of `CCCOC(=O)N1[C@H](C(=O)O)[C@@H](C(C)(C)C)[C@H](NCc2cc(C(C)(C)C)ccc2OC)[C@@H]1c1ccccc1` [II-390], under setting [1], the Emax is more than 200%. Further, the EC50 by setting is: under setting [2], 1000 to 10000 nM; under setting [4], 1000 to 10000 nM. For the same compound, the “Maximum % activity (with co-corrector)” value under setting [3] is “+++ (≥350)”.

For `C=CCOC(=O)N1[C@H](C(=O)O)[C@@H](C(C)(C)C)[C@H](NCc2cc(C(C)(C)C)ccc2OC)[C@@H]1c1ccccc1` [II-391], the Emax under setting [1] was more than 200%. Moreover, the EC50 was 1000 to 10000 nM under setting [2] and 1000 to 10000 nM under setting [4]. Moreover, under setting [3], the “Maximum % activity (with co-corrector)” value is given as “+++ (≥350)”.

For the compound `COc1ccc(C(C)(C)C)cc1CN[C@H]1[C@H](C(C)(C)C)[C@@H](C(=O)O)N(C(=O)OCC(C)(C)C)[C@H]1c1ccccc1` [II-392], the Emax under setting [1] is more than 200%. Moreover, the half-maximal effective concentration (EC50) was less than 1000 nM under setting [2] and less than 1000 nM under setting [4]. In addition, the “Maximum % activity (with co-corrector)” value under setting [3] is listed as “+++ (≥350)”.

As to `COc1ccc(C(C)(C)C)cc1CN[C@@H]1[C@@H](C(C)(C)C)[C@@H](C(=O)O)N(C(=O)[C@H](OC)c2ccccc2)[C@H]1c1ccccc1` [II-393], the Emax under setting [1] was less than 100%. For the same compound, the half-maximal effective concentration (EC50) reads like this: under setting [2], 1000 to 10000 nM; under setting [4], 1000 to 10000 nM. Under setting [3], the “Maximum % activity (with co-corrector)” value was “++ (≥150 and <350)”.

For `COC1(CN[C@H]2[C@H](C(C)(C)C)[C@@H](C(=O)O)N(C(=O)C3CCCCC3)[C@H]2c2ccccc2)CCCCC1` [II-394], the Emax under setting [1] was 100 to 200%. Further, the EC50 is, setting by setting: under setting [2], 1000 to 10000 nM; under setting [4], 1000 to 10000 nM. Moreover, under setting [3], the “Maximum % activity (with co-corrector)” value is “+++ (≥350)”.

In the case of `COc1ccc(C(F)(F)F)cc1CN[C@@H]1[C@@H](C(C)(C)C)[C@@H](C(=O)O)N(C(=O)[C@H](OC)c2ccccc2)[C@H]1c1ccccc1` [II-395], the Emax under setting [1] was less than 100%. The concentration giving a half-maximal response (EC50) runs as follows: under setting [2], 1000 to 10000 nM; under setting [4], 1000 to 10000 nM. In addition, under setting [3], the “Maximum % activity (with co-corrector)” value was “++ (≥150 and <350)”.

For `COc1ccc(C(C)(C)C)cc1CN[C@H]1[C@H](C(C)(C)C)[C@@H](C(=O)O)N(C(=O)[C@@H](OC)c2ccc(F)c(F)c2)[C@H]1c1ccccc1` [II-396], under setting [1], the Emax was 100 to 200%. For the same compound, the half-maximal effective concentration (EC50) was 1000 to 10000 nM under setting [2] and 1000 to 10000 nM under setting [4]. The “Maximum % activity (with co-corrector)” value under setting [3] is on record as “+++ (≥350)”.

For the compound `COc1ccc(C(F)(F)F)cc1CN[C@H]1[C@H](C(C)(C)C)[C@@H](C(=O)O)N(C(=O)C2CCc3cc(C)ccc3O2)[C@H]1c1ccccc1` (stereo partly shown) [II-397], the Emax under setting [1] lay within 100 to 200%. Besides, the EC50 by setting is: under setting [2], 1000 to 10000 nM; under setting [4], less than 1000 nM. Further, the “Maximum % activity (with co-corrector)” value under setting [3] is recorded as “+++ (≥350)”.

What is called EC50 is the concentration at which the effect is half-maximal.
